Article PMC6450887, “Metabolic resistance of the D-peptide RD2 developed for direct elimination of amyloid-β oligomers” (Scientific Reports, 2019)
“Also recorded” adds a separate entry of the source. Non-standard residues stand in square brackets, D forms with d. Residues, ends and D or L forms follow the SMILES beside them.

Assays:
[1] = Stability in human liver microsomes, RP-HPLC / UHPLC-ESI-QTOF-MS; type: in vitro ADME
Protocol: (§1) The preparation of the media was performed as described before in Elfgen et al.[24]. Preparation of simulated gastric and intestinal fluid (SGF & SIF) was done according to the European Pharmacopoeia 7.0. Plasma samples were obtained from human blood of a volunteer donor. Pooled human liver microsomes were purchased from Sekisui XenoTech (Kansas City, USA; H1000, Lot: 0710494 and 1210270; H1500, Lot: 1210079), from Sigma-Aldrich (St. Louis, USA; M0692, Lot: SLBL1433V; M0567, Lot: SLBR2706V and SLBN7300V) and from Gibco, Thermo Fisher Scientific (Waltham, USA; HMMCPL, Lot: PL050; HMMCPM, Lot: PL039). Pooled Sprague Dawley rat liver microsomes were purchased from Sigma-Aldrich (St. Louis, USA; M9066, Lot: SLBN0707V) and from Gibco, Thermo Fisher Scientific (Waltham, USA; RTMCPL, Lot: RT053). Pooled cynomolgus monkey liver microsomes were purchased from Gibco, Thermo Fisher Scientific (Waltham, USA; MKMCPL, Lot: MK062) and from Sekisui XenoTech (Kansas City, USA; P2000, Lot: 1210334). The liver microsomes were diluted in an NADPH regenerating system (NRS).
(§2) For the stability tests, 150 µM RD2 or L-RD2 was incubated in SGF, SIF, human plasma and human liver microsomes in triplicate at 37 °C with slight shaking for different time periods. To prevent microbial contaminations in long-term plasma incubations, 0.1% sodium azide was added to the solutions. Microsomal long-term activity was examined by incubating microsomes without peptide for up to 24 h and adding L-RD2 after 8 and 24 h. The ability to degrade L-RD2 served as indicator for their activity. For the comparison of RD2 metabolite profiles across species, 150 µM RD2 was incubated in human, rat and cynomolgus liver microsomes at 37 °C for 2 and 24 h. The peptides were extracted by precipitating the proteins with trichloroacetic acid (TCA) and subsequent centrifugation, as described previously in Elfgen et al.[24]. Peptides immediately extracted from the media and precipitated media without peptides served as controls.
For sample analysis from stability tests (see 2.3), mobile phases were acetonitrile (A) and water (B) each supplemented with 0.15% trifluoroacetic acid (TFA) (v/v). The samples were measured isocratically at 10% solvent A for 30 min. This run conditions allowed us to detect smallest chemical changes including the differentiation between the original compound and a deamidated version (Fig. S1). RD2 and L-RD2 can potentially be deamidated at two sites, the C-terminus and the asparagine at position seven. Peak areas of the unmetabolized peptides after different incubation times were normalized to the peptides’ peak areas after direct extraction from the media. […] A chromatographic metabolite profile of L-RD2 in SIF was recorded with the same mobile phases but using a gradient from 0 to 30% solvent A in 30 min. […]

[2] = Comparison of RD2 metabolite profiles across species: human liver microsomes; type: in vitro ADME
Protocol: as §1, §2
For the comparison of RD2 metabolite profiles across species (see 2.3), mobile phases were acetonitrile (A) and water (B) each supplemented with 0.1% TFA. The gradient ran from 0 to 100% solvent A and is described in detail in Table S1. The chromatographic RD2 metabolite profiles were screened for potential human-specific metabolites. RD2 and the major RD2 metabolite present after 24 h of incubation in human liver microsome batches 7 and 8, HSM-3, were purified by RP-HPLC. Mobile phases were acetonitrile (A) and water (B) each supplemented with 0.15% TFA. The samples were separated isocratically at 10% solvent A for 30 min. RD2 as well as HSM-3 were collected and the samples were freeze-dried subsequently. The amount of the purified HSM-3 was calculated based on a calibration curve of 10 to 100 µM RD2 extracted from human liver microsomes.

[3] = Comparison of RD2 metabolite profiles across species: rat liver microsomes; type: in vitro ADME
Protocol: as §1
as §2, with “The peptides were extracted by precipitating the proteins with trichloroacetic acid (TCA) and subsequent centrifugation, as described previously in Elfgen et al.[24]. Peptides immediately extracted from the media and precipitated media without peptides served as controls.” left out
For the comparison of RD2 metabolite profiles across species (see 2.3), mobile phases were acetonitrile (A) and water (B) each supplemented with 0.1% TFA. […] The amount of the purified HSM-3 was calculated based on a calibration curve of 10 to 100 µM RD2 extracted from human liver microsomes.

[4] = Inhibition assay: degradation of L-peptide […] with and without RD2; type: in vitro ADME; conditions: 150 µM RD2 + 150 µM L-peptide; SGF, SIF 5 min; plasma, liver microsomes 30 min
Protocol: To investigate whether RD2 acts as potential inhibitor for the enzymes contained in SGF, SIF, human blood plasma and human liver microsomes, an exemplary L-peptide, […], was incubated in these media with and without RD2 and the potential inhibition of the L-peptide’s degradation was monitored. This control was intended to reveal a potential resistance of RD2 to degradation due to enzyme inhibition instead of pure degradation resistance. […] For this purpose, 150 µM of the L-peptide with or without 150 µM RD2 was incubated in SGF, SIF, human plasma and liver microsomes and both peptides were extracted from the media immediately or after 5 min (SGF, SIF) or 30 min (plasma, liver microsomes) with the method mentioned under point 2.3. Time dependent compound degradation or modification was followed by RP-HPLC (see 2.8).
For analysis of the inhibition assay with enzymes contained in SGF, SIF, plasma and liver microsomes (see 2.4), RD2, […] and remaining media components were separated using the mobile phases acetonitrile (A) and water (B) each supplemented with 0.15% TFA and a gradient from 0 to 50% solvent A in 15 min.

CYP3A4 = CYP3A4 (Homo sapiens, UniProt P08684); assay: CYP isoform inhibition in human liver microsomes (Cyprotex)
Chain of CYP3A4 (P08684 whole entry, canonical isoform): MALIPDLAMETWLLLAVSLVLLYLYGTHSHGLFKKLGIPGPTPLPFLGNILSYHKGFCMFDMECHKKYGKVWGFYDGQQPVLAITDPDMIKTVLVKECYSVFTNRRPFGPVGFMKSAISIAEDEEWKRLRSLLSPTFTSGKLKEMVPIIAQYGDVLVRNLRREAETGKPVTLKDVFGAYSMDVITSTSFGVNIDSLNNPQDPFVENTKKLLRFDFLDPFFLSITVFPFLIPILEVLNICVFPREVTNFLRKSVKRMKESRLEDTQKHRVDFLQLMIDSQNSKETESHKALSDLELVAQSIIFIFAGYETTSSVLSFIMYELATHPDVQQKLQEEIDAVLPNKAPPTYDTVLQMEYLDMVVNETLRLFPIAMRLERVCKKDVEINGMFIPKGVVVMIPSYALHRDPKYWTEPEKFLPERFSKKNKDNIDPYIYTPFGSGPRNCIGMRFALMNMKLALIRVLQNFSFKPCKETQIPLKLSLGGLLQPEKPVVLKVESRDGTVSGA
Protocol: The experiments were performed by Cyprotex. […] The reactions were terminated by methanol and the generated metabolites were monitored by LC-MS/MS or fluorescence. […] All assays were performed sevenfold. […] For all other substrates, the termination plates were centrifuged at 2,500 rpm and 4 °C for 30 min and aliquots of the supernatants were combined and transferred to fresh 96-well plates. Formic acid in deionized water (final concentration 0.1%) containing internal standard was added to the supernatants prior to cassette analysis by LC-MS/MS. A decrease in the formation of the metabolite compared to the vehicle control was used to calculate the IC50 values.

## CC(C)C[C@@H](NC(=O)[C@H](NC(=O)[C@H]1CCCN1)[C@H](C)O)C(=O)N[C@H](Cc1c[nH]cn1)C(=O)N[C@@H](C(=O)N[C@H](Cc1c[nH]cn1)C(=O)N[C@H](CC(N)=O)C(=O)N[C@H](CCCNC(=N)N)C(=O)N[C@H](CCCNC(=N)N)C(=O)N[C@H](CCCNC(=N)N)C(=O)N[C@H](CCCNC(=N)N)C(=O)N[C@H](CCCNC(=N)N)C(N)=O)[C@H](C)O [RD2, ptlhthnrrrrr] (H-[dP][dT][dL][dH][dT][dH][dN][dR][dR][dR][dR][dR]-NH2)
[1]; 150 µM, 37 °C, within 24 h
  peptide metabolized: 33 ± 3%
[1]; UHPLC-ESI-QTOF-MS
  deamidation in human liver microsomes: not deamidated
[2]; human samples 1–6, 150 µM, 2 h
  metabolization of RD2 after 2 h: unmetabolized
[2]; human samples 1–6, 24 h
  decrease of the intensity of the RD2 peak: 21 ± 7%
[3]; Sprague Dawley, pooled rat liver microsomes, rat samples, 24 h, read-out: decrease of the intensity of the RD2 peak
  metabolised at 24 h, 150 µM: 17 ± 4%
[3]; rat liver microsomes, 150 µM, 2 h
  metabolization of RD2 after 2 h: unmetabolized
[4]
  influence of RD2 on degradation of the L-peptide KLVFFRRRRRR: not influenced; also recorded: did not influence the degradation of the L-peptide in any of the media
CYP3A4; concentration range 0 to 25 µM
  inhibition of CYP3A4: did not inhibit
CYP3A4; human, human liver microsomes
  inhibition at 0.25 µM: -0.223%
  inhibition at 1 µM: 5.77%
  inhibition at 2.5 µM: 1.71%
  inhibition at 10 µM: -3.08%
  inhibition at 25 µM: -12%
